Measurements reported in PMC5779714, “Metallochaperone UreG serves as a new target for design of urease inhibitor: A novel strategy for development of antimicrobials” (PLoS Biology, 2018).
Like-named read-outs stand apart in the source and are kept apart here.

Legend:
UreG [1] = target: T1, UreG (Helicobacter pylori, UniProt Q09066); test: biochemical; format: biochemical, H. pylori
Description: A Malachite Green Phosphate Assay Kit (Abcam) was utilized to quantify the hydrolysis of GTP by UreG under various conditions. […] GTPase activity of UreG was triggered through the addition of 10 mM KHCO3, after which the reaction was incubated at 37°C for 30 min; then, the free phosphate from hydrolysis of GTP was determined. […] To eliminate the potential effect of small compounds on malachite green assay, the assay included a subtraction of the absorbance of reaction with the same amounts of compounds but without UreG enzyme for each reading.

UreG [2] = target: T1, UreG; test: biochemical; format: binding, H. pylori
H. pylori = test: Growth of H. pylori in neutral and acidic brucella broth (OD600); format: cell-based

T1 sequence (Q09066 whole entry): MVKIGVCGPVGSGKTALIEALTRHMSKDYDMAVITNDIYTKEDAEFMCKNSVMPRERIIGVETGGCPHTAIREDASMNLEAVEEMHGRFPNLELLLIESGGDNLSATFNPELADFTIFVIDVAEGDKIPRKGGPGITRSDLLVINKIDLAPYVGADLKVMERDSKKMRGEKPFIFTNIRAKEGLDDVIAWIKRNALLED

With `O=C(Cn1c2ccccc2c(=O)c2ccccc21)N/N=C/c1cc([N+](=O)[O-])ccc1N1CCCCCC1` [cmpd8] the IC50 (UreG [1]) was 13.2 ± 7.6 µM, the “Normalized GTPase activity(%)” value (UreG [1]; log[μM] 0) was 100.3% and the “Normalized GTPase activity(%)” value (UreG [1]; log[μM] 0.60206) was 93.8%. The “Normalized GTPase activity(%)” value (UreG [1]; log[μM] 0.90309) was 81.8%, the “Normalized GTPase activity(%)” value (UreG [1]; log[μM] 1.20412) was 41.6% and the “Normalized GTPase activity(%)” value (UreG [1]; log[μM] 1.50515) was 32.9%. For the same compound, the “Normalized GTPase activity(%)” value (UreG [1]; log[μM] 1.79588) was 13.8%, the “Normalized GTPase activity(%)” value (UreG [1]; log[μM] 2.09691) was 2.1% and the “Normalized GTPase activity(%)” value (UreG [1]; log[μM] 2.39794) was 16.7%. It also gave an inhibition at 20 µM (UreG [1]; read-out: inhibition of the GTPase activity of UreG) of 37 to 72%, a Normalized fluo (UreG [2]) of 1.54 and a Normalized fluo (UreG [2]; UreG + compound 50μM, Temperature 30.19) of 6.82. It also gave a Normalized fluo (UreG [2]; UreG + compound 50μM, Temperature 30.56) of 5.74, a Normalized fluo (UreG [2]; UreG + compound 50μM, Temperature 30.94) of 4.76 and a Normalized fluo (UreG [2]; UreG + compound 50μM, Temperature 31.33) of 4.03. It also gave a Normalized fluo (UreG [2]; UreG + compound 50μM, Temperature 31.72) of 3.29, a Normalized fluo (UreG [2]; UreG + compound 50μM, Temperature 32.09) of 2.61 and a Normalized fluo (UreG [2]; UreG + compound 50μM, Temperature 32.47) of 2.02. For the same compound, the Normalized fluo (UreG [2]; UreG + compound 50μM, Temperature 32.85) was 1.65, the Normalized fluo (UreG [2]; UreG + compound 50μM, Temperature 33.30) was 1.24 and the Normalized fluo (UreG [2]; UreG + compound 50μM, Temperature 33.65) was 0.72. The Normalized fluo (UreG [2]; UreG + compound 50μM, Temperature 34.08) was 0.51, the Normalized fluo (UreG [2]; UreG + compound 50μM, Temperature 34.47) was 0.31 and the Normalized fluo (UreG [2]; UreG + compound 50μM, Temperature 34.84) was 0.0654. The Normalized fluo (UreG [2]; UreG + compound 50μM, Temperature 35.21) was 0.00, the Normalized fluo (UreG [2]; UreG + compound 50μM, Temperature 35.58) was 0.22 and the Normalized fluo (UreG [2]; UreG + compound 50μM, Temperature 35.96) was 0.34. For the same compound, the Normalized fluo (UreG [2]; UreG + compound 50μM, Temperature 36.34) was 0.64, the Normalized fluo (UreG [2]; UreG + compound 50μM, Temperature 36.71) was 0.86 and the Normalized fluo (UreG [2]; UreG + compound 50μM, Temperature 37.48) was 2.00. It also gave a Normalized fluo (UreG [2]; UreG + compound 50μM, Temperature 37.86) of 2.40, a Normalized fluo (UreG [2]; UreG + compound 50μM, Temperature 38.23) of 3.05 and a Normalized fluo (UreG [2]; UreG + compound 50μM, Temperature 38.61) of 3.75. The Normalized fluo (UreG [2]; UreG + compound 50μM, Temperature 38.99) was 4.78, the Normalized fluo (UreG [2]; UreG + compound 50μM, Temperature 39.38) was 5.95 and the Normalized fluo (UreG [2]; UreG + compound 50μM, Temperature 39.76) was 7.06. It also gave a Normalized fluo (UreG [2]; UreG + compound 50μM, Temperature 40.14) of 8.20, a Normalized fluo (UreG [2]; UreG + compound 50μM, Temperature 40.52) of 9.33 and a Normalized fluo (UreG [2]; UreG + compound 50μM, Temperature 40.91) of 10.80. It also gave a Normalized fluo (UreG [2]; UreG + compound 50μM, Temperature 41.29) of 12.52, a Normalized fluo (UreG [2]; UreG + compound 50μM, Temperature 41.66) of 14.35 and a Normalized fluo (UreG [2]; UreG + compound 50μM, Temperature 42.04) of 16.04. It also gave a Normalized fluo (UreG [2]; UreG + compound 50μM, Temperature 42.42) of 18.03, a Normalized fluo (UreG [2]; UreG + compound 50μM, Temperature 42.81) of 19.94 and a Normalized fluo (UreG [2]; UreG + compound 50μM, Temperature 43.18) of 21.90. The Normalized fluo (UreG [2]; UreG + compound 50μM, Temperature 43.56) was 24.29, the Normalized fluo (UreG [2]; UreG + compound 50μM, Temperature 43.94) was 26.66 and the Normalized fluo (UreG [2]; UreG + compound 50μM, Temperature 44.33) was 29.44. For the same compound, the Normalized fluo (UreG [2]; UreG + compound 50μM, Temperature 44.71) was 32.01, the Normalized fluo (UreG [2]; UreG + compound 50μM, Temperature 45.09) was 34.92 and the Normalized fluo (UreG [2]; UreG + compound 50μM, Temperature 45.47) was 37.82. It also gave a Normalized fluo (UreG [2]; UreG + compound 50μM, Temperature 45.85) of 40.91, a Normalized fluo (UreG [2]; UreG + compound 50μM, Temperature 46.23) of 43.67 and a Normalized fluo (UreG [2]; UreG + compound 50μM, Temperature 46.60) of 46.80. For the same compound, the Normalized fluo (UreG [2]; UreG + compound 50μM, Temperature 46.99) was 50.61, the Normalized fluo (UreG [2]; UreG + compound 50μM, Temperature 47.37) was 53.88 and the Normalized fluo (UreG [2]; UreG + compound 50μM, Temperature 47.75) was 56.90. It also gave a Normalized fluo (UreG [2]; UreG + compound 50μM, Temperature 48.13) of 60.37, a Normalized fluo (UreG [2]; UreG + compound 50μM, Temperature 48.52) of 63.48 and a Normalized fluo (UreG [2]; UreG + compound 50μM, Temperature 48.89) of 67.05. For the same compound, the Normalized fluo (UreG [2]; UreG + compound 50μM, Temperature 49.28) was 70.49, the Normalized fluo (UreG [2]; UreG + compound 50μM, Temperature 49.65) was 73.41 and the Normalized fluo (UreG [2]; UreG + compound 50μM, Temperature 50.04) was 76.19. It also gave a Normalized fluo (UreG [2]; UreG + compound 50μM, Temperature 50.42) of 79.38, a Normalized fluo (UreG [2]; UreG + compound 50μM, Temperature 50.80) of 82.32 and a Normalized fluo (UreG [2]; UreG + compound 50μM, Temperature 51.19) of 85.00. It also gave a Normalized fluo (UreG [2]; UreG + compound 50μM, Temperature 51.56) of 87.48, a Normalized fluo (UreG [2]; UreG + compound 50μM, Temperature 51.96) of 89.89 and a Normalized fluo (UreG [2]; UreG + compound 50μM, Temperature 52.34) of 91.67. For the same compound, the Normalized fluo (UreG [2]; UreG + compound 50μM, Temperature 52.72) was 93.50, the Normalized fluo (UreG [2]; UreG + compound 50μM, Temperature 53.10) was 95.00 and the Normalized fluo (UreG [2]; UreG + compound 50μM, Temperature 53.48) was 96.08. The Normalized fluo (UreG [2]; UreG + compound 50μM, Temperature 53.86) was 97.41, the Normalized fluo (UreG [2]; UreG + compound 50μM, Temperature 54.24) was 98.54 and the Normalized fluo (UreG [2]; UreG + compound 50μM, Temperature 54.62) was 99.22. It also gave a Normalized fluo (UreG [2]; UreG + compound 50μM, Temperature 55.00) of 99.67, a Normalized fluo (UreG [2]; UreG + compound 50μM, Temperature 55.38) of 100.00 and a Normalized fluo (UreG [2]; UreG + compound 50μM, Temperature 55.77) of 99.66. The ΔTm at 50 µM (UreG [2]; read-out: thermal shift on the melting temperature of UreG) was ~2.5 °C, the “OD600(pH5)” value (H. pylori; pH 5) was 0.47 and the “OD600 (pH7)” value (H. pylori; pH 7) was 0.116.
